Measured values reported in patent US10538554B2, “Peptides and uses therefor as antiviral agents” (priority 2015, dated 2020).
Bridge positions count the residues as written; N and C are the ends. Square brackets hold non-standard residues; d marks the D form. Peptide text beside a SMILES is read from it.

tested on: H1N1 A/PR/8/1934; details: A/PR/8/1934, 48 h, 1 μM

Structure (SMILES)	% Inhibition [%]
CC[C@@H](C)[C@H]1NC(=O)[C@@H](Cc2ccccc2)NC(=O)[C@@H]([C@H](C)O)NC(=O)[C@@H](Cc2ccccc2)NC(=O)[C@@H](Cc2c[nH]c3ccccc23)NC(=O)[C@@H](Cc2c[nH]c3ccccc23)NC(=O)[C@H](NC(=O)[C@H](CCCCN)NC(=O)[C@H](CCCCN)NC(=O)[C@H](CCCNC(=N)N)NC(=O)[C@@H](N)CCCNC(=N)N)CSSC[C@H](C(=O)O)NC(=O)[C@@H](Cc2ccccc2)NC1=O [PSP VI A5, H-RRKKcwwftfifc-OH] (H-RRKK[dC][dW][dW][dF][dT][dF][dI][dF][dC]-OH; disulfide 5-13)	60
CC[C@@H](C)[C@H]1NC(=O)[C@@H](Cc2ccccc2)NC(=O)[C@@H]([C@H](C)O)NC(=O)[C@@H](Cc2ccccc2)NC(=O)[C@@H](Cc2c[nH]c3ccccc23)NC(=O)[C@@H](Cc2c[nH]c3ccccc23)NC(=O)[C@H](NC(=O)[C@H](CCCCN)NC(=O)[C@H](CCCCN)NC(=O)[C@H](CCCNC(=N)N)NC(=O)[C@@H](N)CCCNC(=N)N)CSSC[C@H](C(=O)O)NC(=O)CNC1=O [PSP VI A6, H RRKKcwwftfiGc-OH] (H-RRKK[dC][dW][dW][dF][dT][dF][dI]G[dC]-OH; disulfide 5-13)	69
CC[C@@H](C)[C@H]1NC(=O)[C@@H](Cc2ccccc2)NC(=O)[C@@H]([C@H](C)O)NC(=O)[C@@H](Cc2ccccc2)NC(=O)[C@@H](Cc2c[nH]c3ccccc23)NC(=O)[C@@H](Cc2c[nH]c3ccccc23)NC(=O)[C@H](NC(=O)[C@H](CCCCN)NC(=O)[C@H](CCCCN)NC(=O)[C@H](CCCNC(=N)N)NC(=O)[C@@H](N)CCCNC(=N)N)CSSC[C@H](C(=O)O)NC(=O)[C@@H](Cc2c[nH]cn2)NC1=O [PSP VI A7, H-RRKKcwwftfihc-OH] (H-RRKK[dC][dW][dW][dF][dT][dF][dI][dH][dC]-OH; disulfide 5-13)	38.5
CC[C@@H](C)[C@H]1NC(=O)[C@@H](Cc2ccccc2)NC(=O)[C@@H]([C@H](C)O)NC(=O)[C@@H](Cc2ccccc2)NC(=O)[C@@H](Cc2c[nH]c3ccccc23)NC(=O)[C@@H](Cc2c[nH]c3ccccc23)NC(=O)[C@H](NC(=O)[C@H](CCCCN)NC(=O)[C@H](CCCCN)NC(=O)[C@H](CCCNC(=N)N)NC(=O)[C@@H](N)CCCNC(=N)N)CSSC[C@H](C(=O)O)NC(=O)[C@@H]([C@H](C)CC)NC1=O [PSP VI A8, H-RRKKcwwftfiic-OH] (H-RRKK[dC][dW][dW][dF][dT][dF][dI][dI][dC]-OH; disulfide 5-13)	49
CC[C@@H](C)[C@H]1NC(=O)[C@@H](Cc2ccccc2)NC(=O)[C@@H]([C@H](C)O)NC(=O)[C@@H](Cc2ccccc2)NC(=O)[C@@H](Cc2c[nH]c3ccccc23)NC(=O)[C@@H](Cc2c[nH]c3ccccc23)NC(=O)[C@H](NC(=O)[C@H](CCCCN)NC(=O)[C@H](CCCCN)NC(=O)[C@H](CCCNC(=N)N)NC(=O)[C@@H](N)CCCNC(=N)N)CSSC[C@H](C(=O)O)NC(=O)[C@@H](CCCCN)NC1=O [PSP VI A9, H-RRKKcwwftfikc-OH] (H-RRKK[dC][dW][dW][dF][dT][dF][dI][dK][dC]-OH; disulfide 5-13)	11
CC[C@@H](C)[C@H]1NC(=O)[C@@H](Cc2ccccc2)NC(=O)[C@@H]([C@H](C)O)NC(=O)[C@@H](Cc2ccccc2)NC(=O)[C@@H](Cc2c[nH]c3ccccc23)NC(=O)[C@@H](Cc2c[nH]c3ccccc23)NC(=O)[C@H](NC(=O)[C@H](CCCCN)NC(=O)[C@H](CCCCN)NC(=O)[C@H](CCCNC(=N)N)NC(=O)[C@@H](N)CCCNC(=N)N)CSSC[C@H](C(=O)O)NC(=O)[C@@H](CC(C)C)NC1=O [PSP VI A10, H-RRKKcwwftfilc-OH] (H-RRKK[dC][dW][dW][dF][dT][dF][dI][dL][dC]-OH; disulfide 5-13)	48
CC[C@@H](C)[C@H]1NC(=O)[C@@H](Cc2ccccc2)NC(=O)[C@@H]([C@H](C)O)NC(=O)[C@@H](Cc2ccccc2)NC(=O)[C@@H](Cc2c[nH]c3ccccc23)NC(=O)[C@@H](Cc2c[nH]c3ccccc23)NC(=O)[C@H](NC(=O)[C@H](CCCCN)NC(=O)[C@H](CCCCN)NC(=O)[C@H](CCCNC(=N)N)NC(=O)[C@@H](N)CCCNC(=N)N)CSSC[C@H](C(=O)O)NC(=O)[C@@H](CCSC)NC1=O [PSP VI A11, H-RRKKcwwftfimc-OH] (H-RRKK[dC][dW][dW][dF][dT][dF][dI][dM][dC]-OH; disulfide 5-13)	79
CC[C@@H](C)[C@H]1NC(=O)[C@@H](Cc2ccccc2)NC(=O)[C@@H]([C@H](C)O)NC(=O)[C@@H](Cc2ccccc2)NC(=O)[C@@H](Cc2c[nH]c3ccccc23)NC(=O)[C@@H](Cc2c[nH]c3ccccc23)NC(=O)[C@H](NC(=O)[C@H](CCCCN)NC(=O)[C@H](CCCCN)NC(=O)[C@H](CCCNC(=N)N)NC(=O)[C@@H](N)CCCNC(=N)N)CSSC[C@H](C(=O)O)NC(=O)[C@H]2CCCN2C1=O [PSP VI A13, H-RRKKcwwftfipc-OH] (H-RRKK[dC][dW][dW][dF][dT][dF][dI][dP][dC]-OH; disulfide 5-13)	42
CC[C@@H](C)[C@H]1NC(=O)[C@@H](Cc2ccccc2)NC(=O)[C@@H]([C@H](C)O)NC(=O)[C@@H](Cc2ccccc2)NC(=O)[C@@H](Cc2c[nH]c3ccccc23)NC(=O)[C@@H](Cc2c[nH]c3ccccc23)NC(=O)[C@H](NC(=O)[C@H](CCCCN)NC(=O)[C@H](CCCCN)NC(=O)[C@H](CCCNC(=N)N)NC(=O)[C@@H](N)CCCNC(=N)N)CSSC[C@H](C(=O)O)NC(=O)[C@@H](CCC(N)=O)NC1=O [PSP VI A14, H-RRKKcwwftfiqc-OH] (H-RRKK[dC][dW][dW][dF][dT][dF][dI][dQ][dC]-OH; disulfide 5-13)	85
CC[C@@H](C)[C@H]1NC(=O)[C@@H](Cc2ccccc2)NC(=O)[C@@H]([C@H](C)O)NC(=O)[C@@H](Cc2ccccc2)NC(=O)[C@@H](Cc2c[nH]c3ccccc23)NC(=O)[C@@H](Cc2c[nH]c3ccccc23)NC(=O)[C@H](NC(=O)[C@H](CCCCN)NC(=O)[C@H](CCCCN)NC(=O)[C@H](CCCNC(=N)N)NC(=O)[C@@H](N)CCCNC(=N)N)CSSC[C@H](C(=O)O)NC(=O)[C@@H](CCCNC(=N)N)NC1=O [PSP VI A15, H-RRKKcwwftfirc-OH] (H-RRKK[dC][dW][dW][dF][dT][dF][dI][dR][dC]-OH; disulfide 5-13)	92
CC[C@@H](C)[C@H]1NC(=O)[C@@H](Cc2ccccc2)NC(=O)[C@@H]([C@H](C)O)NC(=O)[C@@H](Cc2ccccc2)NC(=O)[C@@H](Cc2c[nH]c3ccccc23)NC(=O)[C@@H](Cc2c[nH]c3ccccc23)NC(=O)[C@H](NC(=O)[C@H](CCCCN)NC(=O)[C@H](CCCCN)NC(=O)[C@H](CCCNC(=N)N)NC(=O)[C@@H](N)CCCNC(=N)N)CSSC[C@H](C(=O)O)NC(=O)[C@@H](CO)NC1=O [PSP VI A16, H-RRKKcwwftfisc-OH] (H-RRKK[dC][dW][dW][dF][dT][dF][dI][dS][dC]-OH; disulfide 5-13)	74
CC[C@@H](C)[C@H]1NC(=O)[C@@H](Cc2ccccc2)NC(=O)[C@@H]([C@H](C)O)NC(=O)[C@@H](Cc2ccccc2)NC(=O)[C@@H](Cc2c[nH]c3ccccc23)NC(=O)[C@@H](Cc2c[nH]c3ccccc23)NC(=O)[C@H](NC(=O)[C@H](CCCCN)NC(=O)[C@H](CCCCN)NC(=O)[C@H](CCCNC(=N)N)NC(=O)[C@@H](N)CCCNC(=N)N)CSSC[C@H](C(=O)O)NC(=O)[C@@H]([C@H](C)O)NC1=O [PSP VI A17, H-RRKKcwwftfitc-OH] (H-RRKK[dC][dW][dW][dF][dT][dF][dI][dT][dC]-OH; disulfide 5-13)	27
